Source: patent EP4786469A1, “TRIAZOLE-CONTAINING COMPOUND, AND PREPARATION METHOD AND USE THEREFOR” (Tuojie Biotech (Shanghai) Co., Ltd., priority 2023, dated 2025)
pIC50: −log10 of the molar value.

What follows are compounds tested against human recombinant αvβ6 protein (Homo sapiens, UniProt P06756+P18564) (assay: αvβ6 binding assay using fluorescence polarization (FP), competition with a fluorescently labeled RGD peptide). Conditions: 12 concentration points, highest 10 µM, read-out: αvβ6 IC50.
Experimental: αvβ6 binding assay using fluorescence polarization (FP) method The analysis was based on competition with a fluorescently labeled RGD peptide for binding to αvβ6. The binding abilities of the test compounds were evaluated and screened according to FP value changes.
The test compounds (3.5 µL) were added to a 384-well black plate. For each test compound, 12 concentration points were set. The highest concentration was 10 µM, and was serially diluted 3-fold. DMSO control wells were used to determine the maximum signal, and 500 nM compound CWHM-12 [drawing 318]
HY-18644) control wells were used as the minimum signal.Then, 3.5 µL of a 4× human recombinant αvβ6 protein working solution (Acrobiosystem) was added. After 15 min of incubation at room temperature, 7 µL of a 2× fluorescent RGD peptide solution (Sangon Biotech) was added to each well. After 1 h of incubation at room temperature, FP signals were read using Envision. GraphPad Prism was used to fit inhibition curves and calculate IC50 values.
The IC50 values (Z factor > 0.5) were calculated using the following formula: Curve fitting formula: Y = Bottom + (Top - Bottom)/(1 + 10^((LogIC50 - X) × Hill Slope)) X: logarithmic value of inhibitor concentration; Y: inhibition percentage; Bottom: minimum response; Top: maximum response; Hill Slope: curve slope. Table 1. Data on the abilities of the compounds (III-h')-(III-m') of the present disclosure to bind to αvβ6

Sequence of human recombinant αvβ6 protein (P06756 31-992 limits assumed): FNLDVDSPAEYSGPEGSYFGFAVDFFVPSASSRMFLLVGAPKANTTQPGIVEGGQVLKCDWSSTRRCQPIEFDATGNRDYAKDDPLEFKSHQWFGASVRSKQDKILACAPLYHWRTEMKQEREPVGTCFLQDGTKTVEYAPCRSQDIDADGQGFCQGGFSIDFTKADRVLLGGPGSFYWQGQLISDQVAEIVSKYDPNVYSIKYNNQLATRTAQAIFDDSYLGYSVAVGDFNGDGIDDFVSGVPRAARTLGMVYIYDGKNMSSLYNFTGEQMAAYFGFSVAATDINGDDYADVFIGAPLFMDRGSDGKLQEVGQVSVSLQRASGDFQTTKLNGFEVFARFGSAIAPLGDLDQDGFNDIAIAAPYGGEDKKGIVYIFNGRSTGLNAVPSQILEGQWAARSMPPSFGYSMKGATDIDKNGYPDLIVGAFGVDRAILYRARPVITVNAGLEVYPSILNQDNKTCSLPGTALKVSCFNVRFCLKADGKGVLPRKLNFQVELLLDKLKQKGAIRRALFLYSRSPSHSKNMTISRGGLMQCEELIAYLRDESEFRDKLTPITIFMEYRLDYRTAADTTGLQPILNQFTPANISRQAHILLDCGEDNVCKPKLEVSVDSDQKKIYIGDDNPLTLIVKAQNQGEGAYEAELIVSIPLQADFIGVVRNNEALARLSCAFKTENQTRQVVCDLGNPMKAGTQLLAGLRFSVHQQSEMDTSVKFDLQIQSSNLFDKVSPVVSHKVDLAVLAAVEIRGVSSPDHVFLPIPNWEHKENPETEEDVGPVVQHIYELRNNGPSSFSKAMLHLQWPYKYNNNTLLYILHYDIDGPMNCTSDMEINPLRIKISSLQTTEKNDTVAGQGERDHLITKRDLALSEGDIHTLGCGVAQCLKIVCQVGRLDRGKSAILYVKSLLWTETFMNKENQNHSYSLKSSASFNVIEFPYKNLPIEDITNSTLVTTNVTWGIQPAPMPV
Sequence of human recombinant αvβ6 protein (P18564 22-707 limits assumed): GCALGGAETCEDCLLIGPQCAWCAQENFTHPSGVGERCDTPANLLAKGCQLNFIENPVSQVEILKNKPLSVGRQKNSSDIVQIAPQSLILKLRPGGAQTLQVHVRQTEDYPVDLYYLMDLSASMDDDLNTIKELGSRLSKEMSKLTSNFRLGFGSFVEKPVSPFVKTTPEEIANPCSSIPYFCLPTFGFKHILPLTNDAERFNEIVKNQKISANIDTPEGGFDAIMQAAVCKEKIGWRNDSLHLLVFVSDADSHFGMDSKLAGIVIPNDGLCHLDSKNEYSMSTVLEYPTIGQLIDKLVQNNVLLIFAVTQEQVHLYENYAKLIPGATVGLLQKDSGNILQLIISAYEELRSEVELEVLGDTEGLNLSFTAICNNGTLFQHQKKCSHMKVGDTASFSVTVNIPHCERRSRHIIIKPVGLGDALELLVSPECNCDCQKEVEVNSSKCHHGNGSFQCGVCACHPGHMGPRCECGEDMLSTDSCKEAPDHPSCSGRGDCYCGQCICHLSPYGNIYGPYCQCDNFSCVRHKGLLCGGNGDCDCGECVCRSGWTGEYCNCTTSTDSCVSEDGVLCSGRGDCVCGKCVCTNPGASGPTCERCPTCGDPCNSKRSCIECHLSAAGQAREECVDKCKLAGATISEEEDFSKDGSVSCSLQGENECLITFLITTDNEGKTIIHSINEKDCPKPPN

**Q.** `[N-]=[N+]=NCCOCCOCCOCCOCCOc1ccc(-c2ccc([C@H](CC(=O)O)NC(=O)CNC(=O)CCCc3ccc4c(n3)NCCC4)cc2)c2ccccc12` [III-k'] was tested. Which pIC50 did it give?
**A.** 8.64

**Q.** How did the pIC50 turn out when `[N-]=[N+]=NCCOCCOCCOCCOCCOc1ccc(-c2ccc([C@H](CC(=O)O)NC(=O)CNC(=O)CCCNc3cc4c(cn3)CCCC4)cc2)c2ccccc12` [III-m'] was run?
**A.** 8.83

**Q.** With `[N-]=[N+]=NCCOCCOCCOCCOCCOc1ccc(-c2ccc([C@H](CC(=O)O)NC(=O)CNC(=O)CCc3ccc4c(n3)NCCC4)cc2)c2ccccc12` [III-l'] as the compound, how does the pIC50 read?
**A.** 8.78

**Q.** With `Cc1ccnc(NCCCC(=O)NCC(=O)N[C@@H](CC(=O)O)c2ccc(-c3ccc(OCCOCCOCCOCCOCCN=[N+]=[N-])c4ccccc34)cc2)c1` [SM6.1-αvβ6, reference compound] as the compound, how does the pIC50 read?
**A.** 8.80

Same assay, conditions: read-out: αvβ6 IC50, 12 concentration points, highest 10 µM

**Q.** How did the pIC50 turn out when `[N-]=[N+]=NCCOCCOCCOCCOCCOc1ccc(-c2ccc([C@H](CC(=O)O)NC(=O)CNC(=O)CCCNc3nccs3)cc2)c2ccccc12` [III-j'] was run?
**A.** 8.70

**Q.** How did the pIC50 turn out when `Cc1ccnc(NCCOC(=O)NCC(=O)N[C@@H](CC(=O)O)c2ccc(-c3ccc(OCCOCCOCCOCCOCCN=[N+]=[N-])c4ccccc34)cc2)c1` [III-h'] was run?
**A.** 9.07

**Q.** `Cc1ccnc(NCCNC(=O)NCC(=O)N[C@@H](CC(=O)O)c2ccc(-c3ccc(OCCOCCOCCOCCOCCN=[N+]=[N-])c4ccccc34)cc2)c1` [III-i'] was tested. Which pIC50 did it give?
**A.** 8.61
